Results taken from patent US20140308733A1, “METHOD FOR INDUCING GERMINATION OF SPORE FORMING BACTERIUM” (CALPIS CO., LTD., priority 2011, published 2014).

Tests used:
Type in all cases: cell-based
[1] = test system: Bacillus licheniformis (NBRC 12200); test: Germination induction, change of turbidity (630 nm) of spore suspension; settings: 300 ppm; for turbidity (630 nm): 37° C., 150 rpm
Procedure: (§1) It is possible to determine whether spores have germinated, after measuring an OD 630 value (turbidity at 630 nm) of the liquid culture, based on decrease in the value (Literature: Microbiology, (1950), 4, 3, 330-338). Briefly, bacterial cells after culturing are washed with distilled water and diluted with distilled water to OD 630=1.0, which is then mixed with an equal volume of a germination induction solution, and the turbidity at 630 nm is measured by a UV spectrophotometer at room temperature.
(§2) TS culture media (Difco, Trypticase Soy Broth) were inoculated respectively with 11 strains listed in Table 1 and cultured at 50° C. with respect to Geobacillus stearothermophilus NBRC13737 and Aeribacillus pallidus TK6004 (FERM BP-08597), and at 37° C. with respect to the other 9 strains, until respective colonies were established. Then with respect to each of 11 strains, a loop full of a single colony was scratched by a platinum loop and suspended in 500 μL of sterilized water. In 1000 g of water was dissolved 8.0 g of a nutrient agar culture medium (Difco, Nutrient Broth), followed by high pressure steam sterilization (121° C., 15 min) to prepare a plate medium. The nutrient agar culture medium was smeared with each 100 μL of the suspension and cultured at 37° C. for 3 days.
(§3) Then, bacterial cells were suspended using a platinum loop in 500 μL of sterilized water, and the bacterial suspension was subjected to a heat shock at 65° C. for 35 min. Each 100 μL of the heat-shocked bacterial suspension and a not-heat-shocked bacterial suspension were smeared on the TS culture media respectively and cultured at 50° C. or 37° C. for 1 day.
(§4) After confirming the spore formation, the bacterial cells were collected by a bacteria spreader, suspended in 10 mL of sterilized distilled water, and then centrifuged (8340×g, 4° C., 15 min). The supernatant was removed and thereafter the bacterial cells were washed twice with 10 mL of sterilized water. After washing, the bacterial cells were suspended in 5 mL of sterilized water, and the suspension was filtrated by sterilized Kimwipes. The filtrate was centrifuged (8340×g, 4° C., 15 min) to remove the supernatant, and the rest was adjusted to the turbidity (at 630 nm) of 1.0 with sterilized water.
(§5) After dissolving with stirring using a stirring rod with a propeller, filtration sterilization (0.45 μm filter) was conducted to prepare each 600 ppm-solution.
(§6) Five hundred (500) μL of each solution and 500 μL of each bacterial spore suspension were mixed. […] Defining the time point of mixing as the reaction initiation (0 min), and continuing shaking (150 rpm) at 37° C., the turbidity (630 nm) was measured at 10, 20, 30, 40, 50, 60, 90, 120, and 180 min after the reaction initiation.
(§7) Since the turbidity at 630 nm decreases by germination of spores, it has been known that the turbidity at 630 nm can be used to determine the germination rate.

[2] = test system: Bacillus licheniformis (NBRC 14206); test: as above; settings: 300 ppm; for turbidity (630 nm): 37° C., 150 rpm
Procedure: as §1, §2, §3, §4, §5, §6, §7

[3] = test system: Bacillus subtilis C-3102 (FERM BP-1096); test: Influence of the concentration of germination inducer on turbidity change (Example 2); settings: for turbidity (630 nm): 37° C., 150 rpm
Procedure: Next, 500 μL aliquots of bacterial suspension of Bacillus subtilis C-3102 (FERM BP-1096) used in Example 1 were mixed with 500 μL of ferulic acid, or vanillic acid solutions described above, and the mixtures were adjusted to ferulic acid (10 to 600 ppm), or vanillic acid (10 to 1800 ppm) concentrations set forth in Table 2. The concentrations of ferulic acid at the reaction initiation were 10, 100, 300, and 600 ppm, and the concentrations of vanillic acid at the reaction initiation were 10, 100, 300, 600, 1200, and 1800 ppm.
As same as Example 1, defining the time point of mixing the bacterial suspension with the solution of ferulic acid, or vanillic acid as the reaction initiation (0 min), and continuing shaking (150 rpm) at 37° C., the absorbance (630 nm) was measured at 10, 20, 30, 40, 50, 60, 90, 120, and 180 min after the reaction initiation.

[4] = 0 min after reaction initiation
[5] = 10 min after reaction initiation
[6] = 20 min after reaction initiation
[7] = 30 min after reaction initiation
[8] = 40 min after reaction initiation
[9] = 50 min after reaction initiation
[10] = 60 min after reaction initiation
[11] = 90 min after reaction initiation
[12] = 120 min after reaction initiation
[13] = 180 min after reaction initiation

Q: For `COc1cc(/C=C/C(=O)O)ccc1O` [Ferulic acid, ferulic acid], which “turbidity (630 nm)” value [1, 4] is on record?
A: 0.601

Q: And the “turbidity (630 nm)” value [1, 5]?
A: 0.569

Q: And the “turbidity (630 nm)” value [1, 6]?
A: 0.563

Q: What about the “turbidity (630 nm)” value [1, 7] of the same molecule?
A: 0.543

Q: What about the “turbidity (630 nm)” value [1, 8] of the same molecule?
A: 0.536

Q: What about the “turbidity (630 nm)” value [1, 9] of the same molecule?
A: 0.517

Q: What about the “turbidity (630 nm)” value [1, 10] of the same molecule?
A: 0.503

Q: And the “turbidity (630 nm)” value [1, 11]?
A: 0.460

Q: And the “turbidity (630 nm)” value [1, 12]?
A: 0.417

Q: What about the “turbidity (630 nm)” value [1, 13] of the same molecule?
A: 0.334

Q: What about the “germination confirmed by turbidity decrease” value ([1]; up to 180 min) of the same molecule?
A: the turbidity decreased

Q: And the “turbidity (630 nm)” value [2, 4]?
A: 0.589

Q: And the “turbidity (630 nm)” value [2, 5]?
A: 0.583

Q: And the “turbidity (630 nm)” value [2, 6]?
A: 0.573

Q: And the “turbidity (630 nm)” value [2, 7]?
A: 0.565

Q: And the “turbidity (630 nm)” value [2, 8]?
A: 0.553

Q: What about the “turbidity (630 nm)” value [2, 9] of the same molecule?
A: 0.547

Q: What about the “turbidity (630 nm)” value [2, 10] of the same molecule?
A: 0.530

Q: What about the “turbidity (630 nm)” value [2, 11] of the same molecule?
A: 0.498

Q: What about the “turbidity (630 nm)” value [2, 12] of the same molecule?
A: 0.474

Q: What about the “turbidity (630 nm)” value [2, 13] of the same molecule?
A: 0.463

Q: And the “germination confirmed by turbidity decrease” value ([2]; up to 180 min)?
A: the turbidity decreased

Q: And the “turbidity (630 nm)” value ([3]; ferulic acid 10 ppm, 0 min after reaction initiation)?
A: 0.584

Q: And the “turbidity (630 nm)” value ([3]; ferulic acid 10 ppm, 10 min after reaction initiation)?
A: 0.563

Q: And the “turbidity (630 nm)” value ([3]; ferulic acid 10 ppm, 20 min after reaction initiation)?
A: 0.553

Q: What about the “turbidity (630 nm)” value ([3]; ferulic acid 10 ppm, 30 min after reaction initiation) of the same molecule?
A: 0.544

Q: What about the “turbidity (630 nm)” value ([3]; ferulic acid 10 ppm, 40 min after reaction initiation) of the same molecule?
A: 0.533

Q: And the “turbidity (630 nm)” value ([3]; ferulic acid 10 ppm, 50 min after reaction initiation)?
A: 0.519

Q: What about the “turbidity (630 nm)” value ([3]; ferulic acid 10 ppm, 60 min after reaction initiation) of the same molecule?
A: 0.507

Q: What about the “turbidity (630 nm)” value ([3]; ferulic acid 10 ppm, 90 min after reaction initiation) of the same molecule?
A: 0.488

Q: And the “turbidity (630 nm)” value ([3]; ferulic acid 10 ppm, 120 min after reaction initiation)?
A: 0.447

Q: What about the “turbidity (630 nm)” value ([3]; ferulic acid 10 ppm, 180 min after reaction initiation) of the same molecule?
A: 0.353

Q: What about the “turbidity (630 nm)” value ([3]; ferulic acid 100 ppm, 0 min after reaction initiation) of the same molecule?
A: 0.583

Q: And the “turbidity (630 nm)” value ([3]; ferulic acid 100 ppm, 10 min after reaction initiation)?
A: 0.565

Q: What about the “turbidity (630 nm)” value ([3]; ferulic acid 100 ppm, 20 min after reaction initiation) of the same molecule?
A: 0.556

Q: And the “turbidity (630 nm)” value ([3]; ferulic acid 100 ppm, 30 min after reaction initiation)?
A: 0.53

Q: What about the “turbidity (630 nm)” value ([3]; ferulic acid 100 ppm, 40 min after reaction initiation) of the same molecule?
A: 0.52

Q: And the “turbidity (630 nm)” value ([3]; ferulic acid 100 ppm, 50 min after reaction initiation)?
A: 0.500

Q: And the “turbidity (630 nm)” value ([3]; ferulic acid 100 ppm, 60 min after reaction initiation)?
A: 0.484

Q: And the “turbidity (630 nm)” value ([3]; ferulic acid 100 ppm, 90 min after reaction initiation)?
A: 0.448

Q: What about the “turbidity (630 nm)” value ([3]; ferulic acid 100 ppm, 120 min after reaction initiation) of the same molecule?
A: 0.383

Q: What about the “turbidity (630 nm)” value ([3]; ferulic acid 100 ppm, 180 min after reaction initiation) of the same molecule?
A: 0.247

Q: What about the “turbidity (630 nm)” value ([3]; ferulic acid 300 ppm, 0 min after reaction initiation) of the same molecule?
A: 0.579

Q: And the “turbidity (630 nm)” value ([3]; ferulic acid 300 ppm, 10 min after reaction initiation)?
A: 0.56

Q: And the “turbidity (630 nm)” value ([3]; ferulic acid 300 ppm, 20 min after reaction initiation)?
A: 0.547

Q: And the “turbidity (630 nm)” value ([3]; ferulic acid 300 ppm, 30 min after reaction initiation)?
A: 0.530

Q: What about the “turbidity (630 nm)” value ([3]; ferulic acid 300 ppm, 40 min after reaction initiation) of the same molecule?
A: 0.520

Q: And the “turbidity (630 nm)” value ([3]; ferulic acid 300 ppm, 50 min after reaction initiation)?
A: 0.499

Q: And the “turbidity (630 nm)” value ([3]; ferulic acid 300 ppm, 60 min after reaction initiation)?
A: 0.466

Q: And the “turbidity (630 nm)” value ([3]; ferulic acid 300 ppm, 90 min after reaction initiation)?
A: 0.422

Q: And the “turbidity (630 nm)” value ([3]; ferulic acid 300 ppm, 120 min after reaction initiation)?
A: 0.354

Q: And the “turbidity (630 nm)” value ([3]; ferulic acid 300 ppm, 180 min after reaction initiation)?
A: 0.22

Q: And the “turbidity (630 nm)” value ([3]; ferulic acid 600 ppm, 0 min after reaction initiation)?
A: 0.586

Q: What about the “turbidity (630 nm)” value ([3]; ferulic acid 600 ppm, 10 min after reaction initiation) of the same molecule?
A: 0.552

Q: And the “turbidity (630 nm)” value ([3]; ferulic acid 600 ppm, 20 min after reaction initiation)?
A: 0.545

Q: And the “turbidity (630 nm)” value ([3]; ferulic acid 600 ppm, 30 min after reaction initiation)?
A: 0.526

Q: And the “turbidity (630 nm)” value ([3]; ferulic acid 600 ppm, 40 min after reaction initiation)?
A: 0.515

Q: And the “turbidity (630 nm)” value ([3]; ferulic acid 600 ppm, 50 min after reaction initiation)?
A: 0.506

Q: And the “turbidity (630 nm)” value ([3]; ferulic acid 600 ppm, 60 min after reaction initiation)?
A: 0.477

Q: And the “turbidity (630 nm)” value ([3]; ferulic acid 600 ppm, 90 min after reaction initiation)?
A: 0.447

Q: And the “turbidity (630 nm)” value ([3]; ferulic acid 600 ppm, 120 min after reaction initiation)?
A: 0.379

Q: What about the “turbidity (630 nm)” value ([3]; ferulic acid 600 ppm, 180 min after reaction initiation) of the same molecule?
A: 0.246

Q: And the “germination induction versus concentration” value ([3]; ferulic acid of 10 to 600 ppm)?
A: germination was inducted at any concentration to the same extent
